Experimental data as given in patent US12324927B2, “Methods and systems for photodynamic therapy calculations” (THE TRUSTEES OF THE UNIVERSITY OF PENNSYLVANIA, priority 2018, dated 2025).
“And” between values parts separate entries of the source, which are not always exact repeats. Equal values may be shown once. “Also recorded” adds a separate entry of the source.

Tests used:
[1] = tested on: radiation-induced fibrosarcoma (RIF) tumors; assay: Photofrin-mediated PDT of RIF tumors: explicit dosimetry and tumor regrowth (cure index); type: in vivo, mice; conditions: for Photofrin post: in tumor after PDT; for Photofrin post / Photofrin pre / [ROS]rx, mea / [ROS]rxcal / CI (cure index, 1−k/kctr): per mouse; for Photofrin pre: in tumor before PDT, 5 mg/kg i.v., 24 h, 5 mg/kg; for [ROS]rx, mea / [ROS]rxcal: 3 mm; for [ROS]rx, mea: measured [^3O2](t); for [ROS]rxcal: model-calculated [^3O2]; for CI (cure index, 1−k/kctr): tumor growth up to 14 days
Procedure: Radiation-induced fibrosarcomas (RIF) cells were cultured and injected in the right shoulder regions of 6-8 weeks old female C3H mice (NCI-Frederick, Frederick, MD). 30 μl were injected at a concentration of 1×10^7 cells/ml, as described previously.^8-11 Animals were under the care of the University of Pennsylvania Laboratory Animal Resources. All studies were approved by the University of Pennsylvania Institutional Animal Care and Use Committee. The fur of the treatment region was clipped prior to cell inoculation, and the treatment area was depilated with Nair (Church & Dwight Co., Inc., Ewing, NJ) at least 24 hours prior to measurements and treatment. Tumors were treated when they were 3˜5 mm in diameter. Mice were given a chlorophyll-free (alfalfa-free) rodent diet (Harlan laboratories Inc., Indianapolis, IN) at least 10 days prior to treatment to eliminate the fluorescence signal from chlorophyll-breakdown products, which have a similar range to the photosensitizer spectra obtained in this study. The photosensitizer fluorescence was used to determine the in vivo concentrations in this study, using methods described previously.^7-9
Treatment delivery was done using an optical fiber with a microlens attachment coupled to a diode laser with the appropriate wavelength for each photosensitizer. A 630 nm laser (Biolitec, Inc., East Longmeadow, MA, USA) was used for Photofrin after a 18˜24 hours drug-light interval. The in-air fluence rate (ϕair) is defined as the calculated irradiance determined by the laser power divided by the treatment area (1 cm diameter spot size). The in-air fluence was calculated by multiplying the in-air fluence rate by the treatment time. RIF tumor-bearing mice with no photosensitizer and no light excitation were used as controls (n=5).
Photofrin (Pinnacle Biologics, Chicago, Illinois) at a dosage of 5 mg/kg was injected through the mouse tail vein as described previously.^12,13 At a 24-h drug-light interval, superficial irradiation of the tumor was performed with a 630-nm laser (Biolitec AG., A-1030, Vienna). A microlens fiber was coupled to the laser to irradiate the tumor uniformly. Animals were assigned to four light dose groups, and each group was comprised of 2 to 3 subgroups with different ϕ. There were a total of 5 treatment groups: 50 J/cm^2 at 150 mW/cm^2, 250 J/cm^2 at 75 mW/cm^2, 135 J/cm^2 at 75 mW/cm^2, 75 J/cm^2 at 75 mW/cm^2, and 100 J/cm^2 at 150 mW/cm^2. Tumor-bearing mice that received neither light irradiation nor Photofrin were used as controls.
Following the drug-light interval of 18˜24 hours, measurements of light fluence rate, photosensitizer concentration and [O2] were performed. Photofrin fluorescence spectra was obtained using a custom-made multi-fiber contact probe before and after PDT.^14 The probe is connected to a 405 nm laser (Power Technology Inc., Little Rock, AR, USA) for the fluorescence excitation of Photofrin and a multichannel CCD spectrograph (InSpectrum, Princeton Instruments, Trenton, NJ, USA) for the collection of the spectra. The in vivo photosensitizer concentration was obtained by comparing the in vivo Photofrin spectra with those of phantoms with known photosensitizer concentrations. The attenuation of the fluorescence signal due to the light absorption and scattering by tissues was corrected by applying an empirical correction factor described elsewhere. The accuracy of in vivo measurements was validated by ex vivo measurements in separate mice.^15.16
The in vivo tissue oxygen partial pressure pO2 was measured during PDT treatment using a phosphorescence-based ^3O2 probe (OxyLite Pro, Oxford Optronix, Oxford, United Kingdom). A bare-fiber-type probe (NX-BF/O/E, Oxford Optronix, Oxford, United Kingdom) was placed inside the tumor at a 3 mm depth from the treatment surface. […]

[2] = Photofrin concentration and PDT dose at pleural cavity sites measured by fluorescence with 4-channel PDT dose dosimeter during Photofrin-mediated pleural PDT; design: species or system human; conditions: in vivo, all measurement sites, 630 nm, 60 J cm^−2

Photofrin post ([1]; 75.00 mW/cm2 for 1500.00 s): 2.80 µM and 3.70 µM and 3.01 µM
Photofrin pre ([1]; 75.00 mW/cm2 for 1500.00 s): 6.50 µM and 6.70 µM and 6.00 µM
Substance: Photofrin
Photofrin post ([1]; 75.00 mW/cm2 for 1800.00 s): 4.90 µM and 3.35 µM and 3.00 µM and 3.50 µM
Photofrin post ([1]; 75.00 mW/cm2 for 3333.00 s): 3.02 µM and 2.44 µM and 2.48 µM and 2.20 µM
Photofrin post ([1]; 150.00 mW/cm2 for 333.00 s): 3.07 µM and 1.19 µM and 2.80 µM and 2.30 µM
Photofrin post ([1]; 150.00 mW/cm2 for 666.00 s): 2.50 µM and 3.54 µM and 4.88 µM and 3.49 µM
Photofrin pre ([1]; 75.00 mW/cm2 for 1800.00 s): 6.90 µM and 6.80 µM and 5.20 µM and 5.67 µM
Photofrin pre ([1]; 75.00 mW/cm2 for 3333.00 s): 6.47 µM and 4.20 µM and 4.54 µM and 4.50 µM
Photofrin pre ([1]; 150.00 mW/cm2 for 333.00 s): 6.80 µM and 3.07 µM and 5.84 µM and 5.10 µM
Photofrin pre ([1]; 150.00 mW/cm2 for 666.00 s): 6.40 µM and 7.20 µM and 7.84 µM and 6.79 µM
[ROS]rx, mea ([1]; 75.00 mW/cm2 for 1500.00 s): 0.82 mM and 0.73 mM and 0.65 mM
[ROS]rx, mea ([1]; 75.00 mW/cm2 for 1800.00 s): 1.13 mM and 0.96 mM and 1.00 mM and 1.10 mM
[ROS]rx, mea ([1]; 75.00 mW/cm2 for 3333.00 s): 1.40 mM and 1.41 mM and 1.39 mM and 1.20 mM
[ROS]rx, mea ([1]; 150.00 mW/cm2 for 333.00 s): 0.27 mM (2×) and 0.21 mM and 0.38 mM
[ROS]rx, mea ([1]; 150.00 mW/cm2 for 666.00 s): 0.77 mM and 0.79 mM and 0.88 mM and 0.78 mM
[ROS]rxcal ([1]; 75.00 mW/cm2 for 1500.00 s): 0.89 mM and 0.93 mM and 0.87 mM
[ROS]rxcal ([1]; 75.00 mW/cm2 for 1800.00 s): 1.39 mM and 1.24 mM and 1.07 mM and 1.09 mM
[ROS]rxcal ([1]; 75.00 mW/cm2 for 3333.00 s): 2.33 mM and 1.73 mM and 1.89 mM and 1.87 mM
[ROS]rxcal ([1]; 150.00 mW/cm2 for 333.00 s): 0.29 mM and 0.235 mM and 0.39 mM and 0.32 mM
[ROS]rxcal ([1]; 150.00 mW/cm2 for 666.00 s): 0.69 mM and 0.81 mM (2×) and 0.8 mM
CI (cure index, 1−k/kctr) ([1]; 75.00 mW/cm2 for 1500.00 s): 0.20 and 0.22 and 0.13
CI (cure index, 1−k/kctr) ([1]; 75.00 mW/cm2 for 1800.00 s): 1.00 and 0.56 and 0.64 and 0.82
CI (cure index, 1−k/kctr) ([1]; 75.00 mW/cm2 for 3333.00 s): 1.00
CI (cure index, 1−k/kctr) ([1]; 150.00 mW/cm2 for 333.00 s): 0.03 and 0.00 and 0.01 and 0.06
CI (cure index, 1−k/kctr) ([1]; 150.00 mW/cm2 for 666.00 s): 0.15 and 0.25 and 0.42 and 0.27
PDT dose threshold ([1]; this study): 439 mM J/cm^2
photobleaching of Photofrin during PDT treatment [2]: no significant photobleaching; also recorded: did not change significantly; also recorded: negligible photobleaching
